Test results: patent EP0313094A2, “Anticancer agent and reagent for obtaining revertants” (MEIJI SEIKA KAISHA LTD., priority 1987, dated 1989)
Entries after “also recorded” stand apart in the source; their conditions may differ.

Columns and labels:
Type in all cases: cell-based
[1] = system: NIH3T3 cells transformed with activated c-Ki-ras, N-ras, ret, hst and raf oncogenes; assay: Growth inhibition of NIH3T3 cells transformed with other oncogenes; settings: final concentration 500 µg/mℓ
Description: (§1) SF-1346 were added to the culture medium of NIH3T3 cells transformed with activated c-Ki-ras, N-ras, ret, hst and raf oncogenes in the same manner as in Example 1 so as to give a final concentration of 500 µg/mℓ.

normal NIH3T3 cells [2] = assay: Growth inhibition of normal NIH3T3 cells (cell counting); settings: 500 µg/mℓ SF-1346; same culture conditions
Description: (§2) NIH3T3 cells transformed by an activated melanoma c-H-ras oncogene and normal NIH3T3 cells were incubated at 37°C each in a Dulbecco-modified Eagle's medium containing 5% (v/v) of bovine serum.
(§3) Each medium was adjusted to have an initial cell density of 1 × 10⁴ cell/mℓ and contain SF-1346 at a concentration of 200 µg/mℓ or 500 µg/mℓ. The cells therein were counted with the lapse of time from the first day to the fifth day and from the fourth day to the seventh day of the incubation.
as §1

transformed NIH3T3 cells = assay: Acquirement of revertants from transformed NIH3T3 cells (morphology, inverted microscope); settings: 500 µg/mℓ; sixth day of incubation; inverted microscope 100 × magnification
Description: (§4) Cell incubation was carried out under the same conditions as those described in Example 1 except that SF-1346 was added to the culture medium so as to give a final concentration of 500 µg/mℓ. […] Namely, these surviving revertants formed flat foci.
Then, the revertants were isolated by selecting cell clusters forming flat foci by […]. After repeating this procedure several times, the desired revertants were isolated.

normal NIH3T3 cells [3] = assay: Morphology of normal NIH3T3 cells incubated with the compound; settings: 500 µg/mℓ; sixth day of incubation
Description: as §4

[4] = system: PSN-1 cells derived from human pancreatic cancer; assay: Inhibition of the growth of PSN-1 cells and acquirement of revertants
Description: PSN-1 cells were incubated at 37°C in RPMI 1640 media each containing 10% (v/v) fetal calf serum and SF-1346 at a concentration of 500 µg/mℓ or 200 µg/mℓ. An initial cell density was adjusted to 1 × 10⁴ cells/mℓ. The cells were counted with the lapse of time from the fourth day to the eighth day after the initiation of the incubation.

[5] = system: NIH3T3 cells transformed by an activated melanoma c-H-ras oncogene; assay: Growth inhibition of transformed NIH3T3 cells (cell counting); settings: 500 µg/mℓ SF-1346, 37°C, Dulbecco-modified Eagle's medium, 5% bovine serum, initial 1 × 10⁴ cell/mℓ
Description: as §2, §3

[6] = system: SRY1 cells which had been obtained by cancerizing rat fibroblast 3Y1 cells through transfection with an src oncogene; assay: Growth inhibition of SRY1 cells; settings: src-transfected rat fibroblast 3Y1 cells; Example 2

## N[C@@H](Cc1ccc(O)cn1)C(=O)O [SF-1346, L-β-(5-hydroxy-2-pyridyl)alanine]
[1]
  growth of the transformed NIH3T3 cells: inhibited the growth
Normal NIH3T3 cells [2]
  growth of the normal NIH3T3 cells: did not inhibit; also recorded: does not inhibit the growth
Transformed NIH3T3 cells
  morphological observation of transformed cells (revertant formation): the transformed cells partially died and the selectively surviving cells were morphologically similar to the normal NIH3T3 cells
Normal NIH3T3 cells [3]
  morphological change of normal cells: no morphological change was observed
[4]; 200 µg/mℓ, PSN-1 cells
  cells converted into flat revertants: 85%
  cells killed: 15%
  growth of the cancer cells: completely inhibiting the growth
[4]; 500 µg/mℓ, RPMI 1640, 10% fetal calf serum, counted fourth to eighth day
  killing of PSN-1 cells: completely killed
[5]
  growth of the transformed NIH3T3 cells: inhibit the growth; also recorded: selectively inhibits the growth
[6]
  growth of SRY1 cells: completely inhibited the growth
